# Measurements as given in ChEMBL document CHEMBL1201862, “PubChem BioAssay data set” (2004).
# Active and inactive are the calls of the source.
# Tests used:
# [1] = ADAM10 inhibitors, peptide cleavage, dose response, biochemical, QFRET (AID 743254);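 note: ADAM10 enzyme with the DM2 quenched FRET peptide as substrate; EDANS fluorescence gain as the protease cuts the substrate; inhibitor potency against ADAM10 proteolytic activity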
# [2] = target: Disintegrin and metalloproteinase domain-containing protein 17 (Homo sapiens, UniProt P78536); experiment: ADAM17 protease inhibitors, dose response, counter-screen for ADAM10 exosite inhibitor project, biochemical, quenched FRET substrate (AID 743253)
# Chain of Disintegrin and metalloproteinase domain-containing protein 17 (P78536 whole entry, the tested form may be a part): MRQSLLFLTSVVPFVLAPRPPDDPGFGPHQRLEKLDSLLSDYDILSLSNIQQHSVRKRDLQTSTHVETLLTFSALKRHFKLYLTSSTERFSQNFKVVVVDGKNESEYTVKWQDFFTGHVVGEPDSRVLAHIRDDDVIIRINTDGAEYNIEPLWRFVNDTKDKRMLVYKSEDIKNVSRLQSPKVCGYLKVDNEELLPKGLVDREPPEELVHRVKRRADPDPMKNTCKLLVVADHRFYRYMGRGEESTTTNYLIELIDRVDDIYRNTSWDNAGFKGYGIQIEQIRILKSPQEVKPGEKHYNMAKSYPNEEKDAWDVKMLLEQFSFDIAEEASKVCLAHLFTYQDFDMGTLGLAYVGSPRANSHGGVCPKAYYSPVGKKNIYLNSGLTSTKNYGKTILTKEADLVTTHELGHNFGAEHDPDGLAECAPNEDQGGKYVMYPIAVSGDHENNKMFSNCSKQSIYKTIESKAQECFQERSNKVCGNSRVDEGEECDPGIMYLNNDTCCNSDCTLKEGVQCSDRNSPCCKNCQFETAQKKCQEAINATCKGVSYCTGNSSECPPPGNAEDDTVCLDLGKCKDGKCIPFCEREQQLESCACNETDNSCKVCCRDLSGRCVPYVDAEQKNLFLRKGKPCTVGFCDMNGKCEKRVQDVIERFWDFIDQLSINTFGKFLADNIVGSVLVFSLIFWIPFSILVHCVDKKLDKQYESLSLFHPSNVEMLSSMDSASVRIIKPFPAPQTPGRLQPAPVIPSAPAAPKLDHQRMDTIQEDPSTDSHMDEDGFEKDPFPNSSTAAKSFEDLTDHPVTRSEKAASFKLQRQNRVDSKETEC
# [3] = target: Oxysterols receptor LXR-beta (Homo sapiens, UniProt P55055); assay type: functional, cell-based;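 note: agonist activity at LXR measured by a cell-based luminescence readout across a dose range, run as a counterscreen for daf-12 agonists; HEK293 cells with Gal4-LXR fusion and GAL4-driven luciferase reporter; potency for activation of Gal4-LXR reporter so compounds are agonists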
# Chain of Oxysterols receptor LXR-beta (P55055 whole entry, the tested form may be a part): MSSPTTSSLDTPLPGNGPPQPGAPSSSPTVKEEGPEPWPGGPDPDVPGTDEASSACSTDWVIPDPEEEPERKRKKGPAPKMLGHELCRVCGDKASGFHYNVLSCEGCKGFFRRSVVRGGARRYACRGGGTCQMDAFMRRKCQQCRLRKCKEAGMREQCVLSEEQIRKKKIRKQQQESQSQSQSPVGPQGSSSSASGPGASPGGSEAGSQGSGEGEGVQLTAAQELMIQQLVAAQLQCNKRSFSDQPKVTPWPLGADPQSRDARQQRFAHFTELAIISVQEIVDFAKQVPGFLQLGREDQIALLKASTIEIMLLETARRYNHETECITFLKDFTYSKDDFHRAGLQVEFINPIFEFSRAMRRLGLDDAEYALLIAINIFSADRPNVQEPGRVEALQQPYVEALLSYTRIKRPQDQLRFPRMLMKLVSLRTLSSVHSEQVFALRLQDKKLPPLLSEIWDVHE
# Beta-lactamase [4] = target: T1, Beta-lactamase (Pseudomonas aeruginosa, UniProt Q79MP6); experiment: IMP-1 metallo-beta-lactamase inhibitors, dose response, selectivity assay for VIM-2 inhibitor project, biochemical, epi-absorbance (AID 1920)
# T1 sequence (Q79MP6 whole entry): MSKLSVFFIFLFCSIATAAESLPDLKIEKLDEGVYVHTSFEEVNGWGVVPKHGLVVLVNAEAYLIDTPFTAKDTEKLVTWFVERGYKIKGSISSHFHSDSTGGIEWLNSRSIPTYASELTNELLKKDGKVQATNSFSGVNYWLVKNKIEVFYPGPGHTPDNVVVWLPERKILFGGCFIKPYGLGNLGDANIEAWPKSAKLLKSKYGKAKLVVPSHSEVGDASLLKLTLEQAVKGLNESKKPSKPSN
# Beta-lactamase [5] = target: Beta-lactamase (Salmonella choleraesuis (strain SC-B67), UniProt Q5J463); experiment: Epi-absorbance-based counterscreen for selective VIM-2 inhibitors: dose response biochemical high throughput screening assay to identify inhibitors of TEM-1 serine-beta-lactamase.
# Chain of Beta-lactamase (Salmonella choleraesuis (strain SC-B67), UniProt Q5J463) (Q5J463 whole entry): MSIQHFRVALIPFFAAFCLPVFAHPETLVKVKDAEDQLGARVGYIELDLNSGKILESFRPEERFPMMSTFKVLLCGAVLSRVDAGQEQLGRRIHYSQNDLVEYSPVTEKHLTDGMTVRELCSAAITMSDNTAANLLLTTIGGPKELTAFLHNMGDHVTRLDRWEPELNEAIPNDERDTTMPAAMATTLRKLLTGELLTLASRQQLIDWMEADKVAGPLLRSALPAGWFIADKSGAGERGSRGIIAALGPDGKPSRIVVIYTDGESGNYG
# Beta-lactamase [6] = target: T1, Beta-lactamase; experiment: […] counterscreen for selective VIM-2 inhibitors: dose response biochemical high throughput screening assay to identify inhibitors of IMP-1 metallo-beta-lactamase.
# [7] = target: T2, Sentrin-specific protease 1 (Homo sapiens, UniProt Q9P0U3); experiment: potency of human SENP1 inhibitors, dose response, biochemical, kinetic FRET (AID 651697); assay type: functional; conditions: read-out: IC50_Mean
# T2 sequence (Q9P0U3 whole entry, the tested form may be a part): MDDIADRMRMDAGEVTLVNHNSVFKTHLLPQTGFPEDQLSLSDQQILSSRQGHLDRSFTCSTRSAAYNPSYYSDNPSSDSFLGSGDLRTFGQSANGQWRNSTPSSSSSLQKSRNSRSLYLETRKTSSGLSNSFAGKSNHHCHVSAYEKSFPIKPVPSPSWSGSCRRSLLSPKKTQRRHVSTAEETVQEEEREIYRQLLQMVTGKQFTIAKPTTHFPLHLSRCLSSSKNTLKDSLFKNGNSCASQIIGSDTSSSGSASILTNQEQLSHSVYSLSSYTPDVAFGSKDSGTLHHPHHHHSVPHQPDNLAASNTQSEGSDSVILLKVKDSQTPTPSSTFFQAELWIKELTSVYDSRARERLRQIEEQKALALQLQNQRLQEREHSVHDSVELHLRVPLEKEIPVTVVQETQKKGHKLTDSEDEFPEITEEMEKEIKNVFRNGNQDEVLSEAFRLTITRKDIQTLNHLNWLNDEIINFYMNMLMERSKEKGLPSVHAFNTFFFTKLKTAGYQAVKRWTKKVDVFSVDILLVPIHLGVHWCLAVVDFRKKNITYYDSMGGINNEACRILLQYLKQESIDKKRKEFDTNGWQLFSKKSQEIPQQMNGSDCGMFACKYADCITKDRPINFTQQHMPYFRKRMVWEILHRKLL
# [8] = target: T2, Sentrin-specific protease 1; experiment: Dose response confirmation of small molecule inhibitors of the catalytic domain of the SUMO protease, SENP1 in a FRET assay.; assay type: functional; conditions: read-out: IC50_Mean
# Large T antigen = Large T antigen (Simian virus 40, UniProt P03070); assay type: functional, Betapolyomavirus macacae;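 note: Confirmatory-stage PubChem screen for compounds that inhibit SV40 T antigen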
# Chain of Large T antigen (P03070 whole entry): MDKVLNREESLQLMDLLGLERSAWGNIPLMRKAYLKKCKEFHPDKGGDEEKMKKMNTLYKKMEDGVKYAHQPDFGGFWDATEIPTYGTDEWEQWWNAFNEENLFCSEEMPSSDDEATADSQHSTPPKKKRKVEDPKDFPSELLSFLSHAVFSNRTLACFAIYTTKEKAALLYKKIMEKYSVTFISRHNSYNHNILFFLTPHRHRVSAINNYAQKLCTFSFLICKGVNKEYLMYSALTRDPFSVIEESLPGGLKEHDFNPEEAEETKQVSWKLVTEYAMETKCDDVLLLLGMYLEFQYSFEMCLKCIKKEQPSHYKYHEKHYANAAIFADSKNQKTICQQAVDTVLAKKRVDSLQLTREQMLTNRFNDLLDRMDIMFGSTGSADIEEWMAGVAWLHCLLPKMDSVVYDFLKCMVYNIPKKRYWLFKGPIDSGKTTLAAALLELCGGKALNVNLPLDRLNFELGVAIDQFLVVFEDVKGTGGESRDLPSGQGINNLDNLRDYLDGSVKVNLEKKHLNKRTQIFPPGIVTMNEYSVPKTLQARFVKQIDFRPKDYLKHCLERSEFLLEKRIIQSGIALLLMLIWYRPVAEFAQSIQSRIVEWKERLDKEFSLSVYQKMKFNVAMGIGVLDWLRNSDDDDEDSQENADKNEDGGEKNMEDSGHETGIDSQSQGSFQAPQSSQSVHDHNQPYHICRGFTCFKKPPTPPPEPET
# Beta-galactosidase = Beta-galactosidase (Escherichia coli, UniProt Q8VNN2); experiment: Dose response counterscreen for EBI2 assay utilizing the enzyme, b-galactosidase.; assay type: functional
# Chain of Beta-galactosidase (Q8VNN2 whole entry): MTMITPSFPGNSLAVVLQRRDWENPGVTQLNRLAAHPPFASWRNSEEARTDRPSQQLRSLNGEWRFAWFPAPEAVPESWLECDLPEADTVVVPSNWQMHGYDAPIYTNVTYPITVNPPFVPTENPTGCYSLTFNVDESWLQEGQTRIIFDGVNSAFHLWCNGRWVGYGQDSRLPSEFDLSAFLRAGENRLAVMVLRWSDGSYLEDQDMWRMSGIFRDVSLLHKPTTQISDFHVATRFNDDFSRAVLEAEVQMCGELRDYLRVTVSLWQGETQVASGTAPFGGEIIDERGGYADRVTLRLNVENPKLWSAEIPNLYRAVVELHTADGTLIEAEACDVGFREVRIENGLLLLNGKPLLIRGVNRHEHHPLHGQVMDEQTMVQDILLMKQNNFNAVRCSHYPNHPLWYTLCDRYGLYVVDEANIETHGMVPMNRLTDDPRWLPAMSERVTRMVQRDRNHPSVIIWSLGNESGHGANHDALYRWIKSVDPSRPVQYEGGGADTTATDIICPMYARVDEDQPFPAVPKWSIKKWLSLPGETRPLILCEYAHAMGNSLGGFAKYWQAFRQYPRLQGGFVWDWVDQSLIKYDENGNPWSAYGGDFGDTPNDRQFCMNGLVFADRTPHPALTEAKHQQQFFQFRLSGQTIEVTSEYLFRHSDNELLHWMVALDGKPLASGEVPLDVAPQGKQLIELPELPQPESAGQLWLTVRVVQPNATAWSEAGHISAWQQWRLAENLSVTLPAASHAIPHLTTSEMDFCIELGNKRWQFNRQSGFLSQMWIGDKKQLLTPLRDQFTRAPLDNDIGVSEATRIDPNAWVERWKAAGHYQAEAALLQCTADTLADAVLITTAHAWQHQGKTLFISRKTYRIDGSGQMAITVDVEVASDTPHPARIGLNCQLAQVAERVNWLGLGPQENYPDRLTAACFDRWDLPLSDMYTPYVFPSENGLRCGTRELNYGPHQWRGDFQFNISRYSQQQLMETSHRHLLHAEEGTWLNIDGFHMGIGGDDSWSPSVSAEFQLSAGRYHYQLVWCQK
# [9] = HepG2 cell cytotoxicity, dose response, cytotoxicity control, ATP luminescence, cherry-pick, activator set 2 (AID 1053143); assay type: functional, cell-based
# Protein Wnt-3a = Protein Wnt-3a (Mus musculus, UniProt P27467); experiment: Wnt3a-driven reporter signaling inhibition, dose response, selectivity assay for Gli-SUFU antagonist project, Wnt-LIGHT cells, luminescence (AID 651570); assay type: functional; conditions: read-out: IC50_Mean;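 note: Wnt-LIGHT reporter cells stimulated with conditioned medium from Wnt3a-producing cells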
# Chain of Protein Wnt-3a (P27467 whole entry): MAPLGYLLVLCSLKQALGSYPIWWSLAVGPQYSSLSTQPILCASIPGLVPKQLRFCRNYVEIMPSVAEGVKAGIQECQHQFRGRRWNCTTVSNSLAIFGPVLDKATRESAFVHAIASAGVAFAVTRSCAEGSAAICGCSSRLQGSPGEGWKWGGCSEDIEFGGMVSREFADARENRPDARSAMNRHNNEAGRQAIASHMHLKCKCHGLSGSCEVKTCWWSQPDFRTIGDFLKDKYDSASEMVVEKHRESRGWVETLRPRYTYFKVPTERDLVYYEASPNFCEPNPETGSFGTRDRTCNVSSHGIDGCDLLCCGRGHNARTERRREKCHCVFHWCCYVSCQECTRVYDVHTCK
# [10] = HEK293T cell cytotoxicity, dose response, cytotoxicity control, CellTiter-Glo luminescence, cherry-picked samples, set 4 (AID 743441); assay type: functional, cell-based; conditions: HEK293
# [11] = insulin promoter down-regulators in MIN6 cells, imaging, high-content screening, mouse beta cells (AID 1628); assay type: functional
# H4 = experiment: Luminescence Cell-Based Dose Response HTS to Identify Activators of 5'UTR Stem-Loop Driven Prion Protein mRNA Translation in H4 Neuroglioblastoma Cells. [Related pubchem assays: 1829 (Project Summary), 1814 (Primary HTS)]; assay type: functional; conditions: Homo sapiens
# [12] = Luminescence Cell-Based Dose Response HTS to Identify Activators of Luciferase Translation or Activity in H4 […] Cells. [Related pubchem assays: 1829 (Project Summary), 1814 (Primary HTS)]; assay type: functional
# [13] = cytotoxicity in MIN6 insulinoma cells, dose response, cytotoxicity control, cell-based, mouse insulinoma (AID 2122); assay type: functional;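 note: confirmatory high-throughput counterscreen run to flag cytotoxic compounds; mouse MIN-6 beta cells carrying an insulin promoter eGFP reporter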
# [14] = target: T3, Small ubiquitin-related modifier 2 (Homo sapiens, UniProt P61956); experiment: SUMO2–SIM peptide binding inhibitors, dose response, selectivity assay for SUMO1 interaction inhibitor project, biochemical, fluorescence polarization, uHTS hits (AID 624385); assay type: functional; conditions: read-out: IC50_Mean
# T3 sequence (P61956 whole entry): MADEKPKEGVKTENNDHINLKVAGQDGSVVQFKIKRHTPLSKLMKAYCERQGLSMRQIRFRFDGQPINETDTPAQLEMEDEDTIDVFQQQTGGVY
# [15] = target: T4, Small ubiquitin-related modifier 1 (Homo sapiens, UniProt P63165); experiment: inhibitors of SUMO1 peptide binding, dose response, biochemical, fluorescence polarization, uHTS hits (AID 624382); assay type: functional; conditions: read-out: IC50_Mean
# T4 sequence (P63165 whole entry): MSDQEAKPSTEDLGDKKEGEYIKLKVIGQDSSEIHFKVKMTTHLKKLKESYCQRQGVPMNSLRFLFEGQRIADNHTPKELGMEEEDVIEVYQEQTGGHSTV
# [16] = target: T4, Small ubiquitin-related modifier 1; experiment: inhibitors of SUMO1 partner interactions, dose response, biochemical, FRET (AID 624383); assay type: functional; conditions: read-out: IC50_Mean
# Aminopeptidase N = target: T5, Aminopeptidase N (Plasmodium falciparum FcB1/Columbia, UniProt O96935); experiment: P. falciparum M1AAP inhibitors, biochemical, fluorogenic H-Leu-NHMec substrate, 1536-well (AID 1445); design: species or system Plasmodium falciparum 3D7, 3D7
# T5 sequence (O96935 whole entry): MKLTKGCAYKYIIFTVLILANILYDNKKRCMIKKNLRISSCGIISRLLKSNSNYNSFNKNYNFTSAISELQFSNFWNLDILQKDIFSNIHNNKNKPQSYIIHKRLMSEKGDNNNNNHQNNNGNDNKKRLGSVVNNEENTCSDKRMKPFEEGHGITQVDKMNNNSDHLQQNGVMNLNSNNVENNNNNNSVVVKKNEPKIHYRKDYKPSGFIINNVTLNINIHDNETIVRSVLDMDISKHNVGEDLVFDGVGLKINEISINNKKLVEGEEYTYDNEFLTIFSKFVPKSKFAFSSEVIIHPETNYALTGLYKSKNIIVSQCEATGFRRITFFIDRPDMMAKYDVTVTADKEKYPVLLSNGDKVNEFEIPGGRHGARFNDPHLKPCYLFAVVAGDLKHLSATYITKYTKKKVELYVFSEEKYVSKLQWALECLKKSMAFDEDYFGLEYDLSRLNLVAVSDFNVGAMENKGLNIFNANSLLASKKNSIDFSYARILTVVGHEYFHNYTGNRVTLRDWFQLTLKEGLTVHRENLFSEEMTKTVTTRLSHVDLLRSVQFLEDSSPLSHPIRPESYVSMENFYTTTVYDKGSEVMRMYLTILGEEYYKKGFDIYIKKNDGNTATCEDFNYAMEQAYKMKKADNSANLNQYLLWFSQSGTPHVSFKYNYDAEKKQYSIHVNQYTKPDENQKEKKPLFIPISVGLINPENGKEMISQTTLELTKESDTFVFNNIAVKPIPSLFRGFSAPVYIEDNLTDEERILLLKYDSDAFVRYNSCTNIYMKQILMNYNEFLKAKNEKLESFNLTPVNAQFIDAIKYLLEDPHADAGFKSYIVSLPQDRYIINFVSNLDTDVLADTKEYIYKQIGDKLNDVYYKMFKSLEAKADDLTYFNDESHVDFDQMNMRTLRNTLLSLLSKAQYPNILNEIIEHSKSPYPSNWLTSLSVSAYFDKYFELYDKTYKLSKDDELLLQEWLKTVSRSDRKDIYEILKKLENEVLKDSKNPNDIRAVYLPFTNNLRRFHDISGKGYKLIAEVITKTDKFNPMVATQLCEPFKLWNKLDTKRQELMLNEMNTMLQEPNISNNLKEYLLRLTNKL
# [17] = target: T3, Small ubiquitin-related modifier 2; experiment: inhibitors of SUMO2 protein-protein interaction, dose response, selectivity assay for SUMO1 interaction inhibitor project, biochemical, FRET, human SUMO2, uHTS hits (AID 624384); assay type: functional; conditions: read-out: IC50_Mean
smiles,measurement,setting,value
O=S(=O)(NCC(Nc1ccc(Cl)cc1)c1ccccc1)c1ccccc1 (stereo not drawn),IC50,[1],11.4 µM (inactive)
same,IC50,[2],> 69.5 µM (inactive)
Cc1ccc(SCCN2CCC(C)CCC2=O)cc1 (stereo not drawn),EC50,[3],> 67.5 µM (inactive)
Cc1ccc(-c2nnc(S)n2-c2ccccc2)cc1,IC50,Beta-lactamase [4],> 59.6 µM (inactive)
same,IC50,Beta-lactamase [5],> 59.6 µM (inactive)
same,IC50,Beta-lactamase [6],> 59.6 µM (inactive)
Cc1cccn2c(=O)c(/C=C(\C#N)C(N)=O)c(Oc3ccccc3)nc12,AC50,cells,8.22 µM (active)
Cc1ccc(-c2nc3ncccn3c2NC2CCCCC2)o1,IC50,[7],19.7 µM (active)
same,IC50,[8],8.98 µM (active)
same,IC50,Large T antigen,25.9 µM (active)
Cc1ccc(CNC(=O)C2CCN(S(=O)(=O)c3ccc(Br)s3)CC2)cc1,IC50,Beta-galactosidase,> 80 µM (inactive)
CC(=O)Nc1cc2nn(-c3ccccc3)nc2cc1Cl,AC50,[9],4.99 µM (active)
COc1ccc(Cn2c(-c3ccc(Cl)cc3)c[n+]3ccccc23)cc1,IC50,Protein Wnt-3a,36.9 µM (inactive)
same,AC50,[10],39.3 µM (active)
same,IC50,[11],1.35 µM (active)
same,EC50,H4,> 120 µM (not active)
same,EC50,[12],> 120 µM (not active)
same,IC50,[13],1.02 µM (active)
Nc1cccc2[nH]c(C(F)(F)F)nc12,IC50,[14],29.8 µM (inactive)
same,IC50,[15],26.8 µM (inactive)
same,IC50,[16],37 µM (inactive)
same,IC50,Aminopeptidase N,80.8 µM (active)
same,IC50,[17],10.4 µM (active)
